Common to all, as to format: cell-based
In assay [1] the test system is Enterobacter aerog. ICB 5240. The assay can be described thus: MIC, agar serial dilution, Enterobacter aerog. ICB 5240. Conditions: Iso-Sensitest agar, 37° C., about 20 hours. How it is done: (§1) The minimum inhibitory concentrations (MIC) were determined by means of serial dilution methods on Iso-Sensitest agar (Oxoid). For each substance to be tested, a series of agar plates was prepared which contained concentrations of the active compound which in each case decreased by a doubling dilution. The agar plates were inoculated with a Multipoint inoculator (Denley). For the inoculation, overnight cultures of the pathogens were used which had previously been diluted so that each inoculation spot contained about 10^4 colony-forming particles. The inoculated agar plates were incubated at 37° C. and the organism growth was recorded after about 20 hours. The MIC value (μg/ml) indicates the lowest concentration of active compound at which no growth was detected with the naked eye.
(§2) In the table below, the MIC values of some of the compounds according to the invention are listed in comparison with 1-cyclopropyl-6,8-difluoro-1,4-dihydro-7-(cis-2-oxa-5,8-diazabicyclo[4.3.0]non-8-yl)-4-oxo-3-quinoline-carboxylic acid hydrochloride (reference example A) and 8-chloro-1-cyclopropyl-6-fluoro-1,4-dihydro-7-(cis-2-oxa-5,8-diazabicyclo[4.3.0]non-8-yl)-4-oxo-3-quinoline-carboxylic acid hydrochloride (reference example B).

Assay [2] has as its system Enterococcus faecalis 9790. The experiment in a line: MIC, agar serial dilution, Enterococcus faecalis 9790. Particulars: Iso-Sensitest agar, 37° C., about 20 hours. On the procedure:
as §1, §2

For assay [3], the system named is Staphylococcus aureus ICB 25701. The experiment in a line: MIC, agar serial dilution, Staphylococcus aureus ICB 25701. Conditions: ICB25701, Iso-Sensitest agar, 37° C., about 20 hours. On the procedure: as §1, §2
The test system of another assay is Providencia sp. 12012. The experiment in a line: MIC, agar serial dilution, Providencia sp. 12012. Conditions: Iso-Sensitest agar, 37° C., about 20 hours. On the procedure: as §1, §2
Assay [4] concerns Staphylococcus aureus 133. The experiment in a line: MIC, agar serial dilution, Staphylococcus aureus 133. Particulars: Iso-Sensitest agar, 37° C., about 20 hours. On the procedure: as §1, §2
Assay [5] deals with Staphylococcus aureus 1756. The assay can be described thus: MIC, agar serial dilution, Staphylococcus aureus 1756. Particulars: Iso-Sensitest agar, 37° C., about 20 hours. How it is done:
as §1, §2

Assay [6] concerns Klebsiella pneumoniae 8085. The experiment in a line: MIC, agar serial dilution, Klebsiella pneumoniae 8085. Conditions: Iso-Sensitest agar, 37° C., about 20 hours. On the procedure:
as §1, §2

For assay [7], the system named is Enterobacter cloacae 2427. The experiment in a line: MIC, agar serial dilution, Enterobacter cloacae 2427. Particulars: Iso-Sensitest agar, 37° C., about 20 hours. How it is done:
as §1, §2

The subject of another assay is Escherichia coli 455/7. The assay can be described thus: MIC, agar serial dilution, Escherichia coli 455/7. Conditions: Iso-Sensitest agar, 37° C., about 20 hours. On the procedure: as §1, §2
Assay [8] concerns Enterococcus faecalis 27101. The experiment in a line: MIC, agar serial dilution, Enterococcus faecalis 27101. Conditions: Iso-Sensitest agar, 37° C., about 20 hours. On the procedure: as §1, §2
The subject of another assay is Micrococcus luteus 9341. The experiment in a line: MIC, agar serial dilution, Micrococcus luteus 9341. Conditions: Iso-Sensitest agar, 37° C., about 20 hours. On the procedure: as §1, §2
The test system of another assay is Morganella morganii 932. The experiment in a line: MIC, agar serial dilution, Morganella morganii 932. Particulars: Iso-Sensitest agar, 37° C., about 20 hours. On the procedure: as §1, §2
For assay [9], the system named is Pseudomonas aeruginosa ICB 308029. The assay can be described thus: MIC, agar serial dilution, Pseudomonas aeruginosa ICB 308029. Particulars: ICB308029, Iso-Sensitest agar, 37° C., about 20 hours. How it is done:
as §1, §2

Data on four compounds can be found in patent US5574161A, “7-(aminomethyl-oxa-7-aza-bicyclo[3.3.0]oct-7-yl)quinolonecarboxylic and 7-(aminomethyl-oxa-7-aza-bicyclo[3.3.0]oct-7-yl naphthyridonecarboxylic acid derivatives” (Bayer Aktiengesellschaft, priority 1992, dated 1996).

Where only a bound is given, the exact number is not on record here.

On to `Cl.O=C(O)c1cn(C2CC2)c2c(Cl)c(N3C[C@@H]4NCCO[C@@H]4C3)c(F)cc2c1=O` (relative stereo) [B, 8-chloro-1-cyclopropyl-6-fluoro-1,4-dihydro-7-(cis-2-oxa-5,8-diazabicyclo[4.3.0]non-8-yl)-4-oxo-3-quinoline-carboxylic acid hydrochloride], for which the MIC is 16 µg/mL in assay [1]; 0.125 µg/mL in assay [2]; 0.5 µg/mL in assay [3]; 0.06 µg/mL against Providencia sp. 12012; 0.03 µg/mL in assay [4]; 0.015 µg/mL in assay [5]. In addition, the MIC in assay [6] worked out at 0.06 µg/mL; in assay [7] it was 0.25 µg/mL; in the assay on Escherichia coli 455/7, 2 µg/mL; in assay [8] it was 0.125 µg/mL; against Micrococcus luteus 9341, 0.25 µg/mL; with Morganella morganii 932 it was 0.06 µg/mL. In assay [9], the MIC came out at 64 µg/mL.
In the case of `NCC12CN(c3c(F)cc4c(=O)c(C(=O)O)cn(C5CC5)c4c3Cl)CC1CCO2.O=C(O)C(F)(F)F` (stereo not shown) [Example 2B, 7-(1-aminomethyl-2-oxa-7-aza-bicyclo[3.3.0]oct-7-yl)-8-chloro-1-cyclopropyl-6-fluoro-1,4-dihydro-4-oxo-3-quinolinecarboxylic acid trifluoroacetate], the MIC in assay [1] was 8 µg/mL; in assay [2], 0.06 µg/mL; in [3], 0.25 µg/mL; against Providencia sp. 12012, 0.03 µg/mL; in assay [4], 0.015 µg/mL; in [5], 0.0039 µg/mL. Also, the minimum inhibitory concentration (MIC) amounted to 0.03 µg/mL in assay [6]; 0.06 µg/mL in assay [7]; 1 µg/mL with Escherichia coli 455/7; 0.03 µg/mL in assay [8]; 0.125 µg/mL in the assay with Micrococcus luteus 9341; 0.03 µg/mL with Morganella morganii 932. The compound further yielded an MIC in assay [9] of 32 µg/mL.
With `Cl.NCC12CN(c3c(F)cc4c(=O)c(C(=O)O)cn(C5CC5)c4c3F)CC1CCO2` (stereo not shown) [Example 1B, 7-(1-aminomethyl-2-oxa-7-aza-bicyclo[3.3.0]oct-7-yl) -1-cyclopropyl-6,8-difluoro-1,4-dihydro-4-oxo-3-quinolinecarboxylic acid hydrochloride], the MIC is 8 µg/mL in assay [1]; 0.125 µg/mL in assay [2]; 1 µg/mL in [3]; 0.06 µg/mL in the assay on Providencia sp. 12012; 0.06 µg/mL in assay [4]; no more than 0.015 µg/mL in assay [5]. Further, the MIC came out at 0.06 µg/mL in assay [6]; 0.06 µg/mL in [7]; 2 µg/mL in the assay on Escherichia coli 455/7; 0.06 µg/mL in [8]; 0.25 µg/mL in the assay on Micrococcus luteus 9341; 0.03 µg/mL against Morganella morganii 932. The compound also gave an MIC in [9] of 16 µg/mL.
In the case of `Cl.O=C(O)c1cn(C2CC2)c2c(F)c(N3C[C@@H]4NCCO[C@@H]4C3)c(F)cc2c1=O` (relative stereo) [A, 1-cyclopropyl-6,8-difluoro-1,4-dihydro-7-(cis-2-oxa-5,8-diazabicyclo[4.3.0]non-8-yl)-4-oxo-3-quinoline-carboxylic acid hydrochloride], the MIC in [1] came out at 32 µg/mL; in assay [2], 0.25 µg/mL; in [3], 2 µg/mL; against Providencia sp. 12012, 0.125 µg/mL; in assay [4], 0.06 µg/mL; in [5], 0.06 µg/mL. Moreover, the MIC in assay [6] stood at 0.06 µg/mL; in assay [7] it was 0.125 µg/mL; against Escherichia coli 455/7, 4 µg/mL; in [8] it was 0.25 µg/mL; against Micrococcus luteus 9341 it was 0.5 µg/mL; in the assay with Morganella morganii 932, 0.125 µg/mL. Besides, the MIC in [9] is 64 µg/mL.
